Measurements reported in patent publication US20240368559A1, “METHOD OF PRODUCING BRAIN MICROVASCULAR ENDOTHELIAL-LIKE CELLS AND USE THEREOF” (PUBLIC UNIVERSITY CORPORATION NAGOYA CITY UNIVERSITY, priority 2021, published 2024).

Legend:
Type in all cases: cell-based
[1] = tested on: iBPCs (human iPS cell-derived brain pericytes); experiment: Brain pericyte marker protein expression in iBPCs by immunostaining; conditions: FIGS. 21 and 22; 1 μM A 83-01 in differentiation medium
Procedure: The above-described hiPSCs were used and induced to differentiate into iBPCs. Human iPS cells cultured in mTeSR plus medium were detached by using TrypLE Select, seeded on a VTN-N-coated culture dish at a density of 2×10^4 cells/cm^2, and then cultured in mTeSR plus medium containing 10 μM of Y-27632 (manufactured by Focus Biomolecules) for 24 hours. Thereafter, the cells were cultured for 1 day in modified DMEM/F12 medium (DMEM/F12 containing 0.1% chemically defined lipid concentrate, 0.1×insulin-transferrin-selenium (from Thermo Fisher Scientific), 2 mM GlutaMAX (from Sigma-Aldrich), […] 1-thioglycerol (from Sigma-Aldrich), 50 μg/mL of L-ascorbic acid phosphate magnesium salt n-hydrate, and 1×penicillin-streptomycin solution) supplemented with 5 μM CHIR-99021 (manufactured by Focus Biomolecules). Next, the cells were cultured for 1 day in modified DMEM/F12 medium containing 50 ng/mL of FGF2. Then, the cells were cultured for 2 days in EGM-2 medium (EGM-2 basal medium containing 2% FBS, 0.2 μg/mL hydrocortisone, 10 ng/mL FGF2, 20 ng/mL R3-IGF-1, 1 μg/mL ascorbic acid, 5 ng/mL hEGF, gentamicin, and amphotericin B) supplemented with 50 ng/mL PDGF-BB and 0.5 ng/mL VEGF. During this time, the medium was changed every day. On day 4, cells treated with 10 μM Y-27632 for 1 hour were dissociated using TrypLE Select, subcultured on a new VTN-N-coated culture dish at 1.25×10^4 cells/cm^2, and then induced to differentiate in an EGM-2 medium containing 50 ng/mL PDGF-BB. During this time, the medium was changed every day. On day 8 of differentiation, the cells were induced to differentiate in an EGM-2 medium containing 50 ng/mL PDGF-BB, and 1 μM A 83-01. During this time, the medium was changed every day. […]
iBPCs (X(+) and X(−)) induced to differentiate from hiPSCs by the above method were analyzed by immunostaining in order to check the properties as BPCs. […] After that, the cells were washed three times with D-PBS (−), and then analyzed with an Operetta High-Content Imaging System (manufactured by PerkinElmer). […]

[2] = tested on: iBMELCs (human iPS cell-derived brain microvascular endothelial-like cells); experiment: Transendothelial electrical resistance (TEER) of iBMELCs induced to differentiate from iEPCs under varied medium and coating conditions; conditions: FIG. 6
Source text: iEPCs were induced to differentiate into iBMELCs under conditions where the coating agent and the additive added to the culture medium each varied. For coating the culture dish, as described above, two components of FBN and COL4, or three components obtained by adding any one component of VTN-N, LN221, LN411F, and LN511F to these two components, or four components obtained by adding LN411F and LN511F to these two components were used. As the third component, Laminin211, Laminin411, Laminin511, Agrin, Laminin-mix, Laminin-fragment mix, or hep ex was also used. […]
In order to examine the effect of cryopreserving iEPCs induced to differentiate from hiPSCs, the difference in transendothelial electrical resistance (TEER value) was compared between the presence and absence of freezing. A frozen group, in which iEPCs on day 14 of differentiation were frozen and thawed by the above-described method, and a unfrozen group of unfrozen iEPCs on day 14 of differentiation were induced to differentiate into iBMELCs by the above-described method while using the above-described differentiation-inducing condition A, and the TEER value was then measured. […] As used herein, the “maximum TEER value” means the maximum value among the TEER values measured on each day from day 2 after seeding to day 10 after seeding. […]

[3] = tested on: iBPCs (human iPS cell-derived brain pericytes); experiment: Brain pericyte marker gene expression in iBPCs by RT-q PCR; conditions: FIG. 20; 1 μM A 83-01 from day 8, iBPCs on day 12 of differentiation
Procedure: (§1) The above-described hiPSCs were used and induced to differentiate into iBPCs. Human iPS cells cultured in mTeSR plus medium were detached by using TrypLE Select, seeded on a VTN-N-coated culture dish at a density of 2×10^4 cells/cm^2, and then cultured in mTeSR plus medium containing 10 μM of Y-27632 (manufactured by Focus Biomolecules) for 24 hours. Thereafter, the cells were cultured for 1 day in modified DMEM/F12 medium (DMEM/F12 containing 0.1% chemically defined lipid concentrate, 0.1×insulin-transferrin-selenium (from Thermo Fisher Scientific), 2 mM GlutaMAX (from Sigma-Aldrich), […] 1-thioglycerol (from Sigma-Aldrich), 50 μg/mL of L-ascorbic acid phosphate magnesium salt n-hydrate, and 1×penicillin-streptomycin solution) supplemented with 5 μM CHIR-99021 (manufactured by Focus Biomolecules). Next, the cells were cultured for 1 day in modified DMEM/F12 medium containing 50 ng/mL of FGF2. […]
The expression level of each brain pericyte marker gene was analyzed by RT-q PCR. […] Relative expression levels of mRNA in X (+) and X (−) were determined while the expression level of mRNA in hPCs was set to 1 as a reference. […]

[4] = tested on: iBPCs (human iPS cell-derived brain pericytes); experiment: Cell scratch test of cell migration ability and proliferation potential of iBPCs; conditions: FIGS. 23 and 24
Procedure: as §1
Samples used were iBPCs (X (+)) induced to differentiate by adding A 83-01 in the above method and iBPCs (X (−)) induced to differentiate without adding A 83-01 in the above method. […] How the cells migrated 0, 12, and 24 hours of culture after cell scratching was checked by bright field observation, and the scratched area was calculated by Image J.

Cc1cccc(-c2nn(C(=S)Nc3ccccc3)cc2-c2ccnc3ccccc23)n1 [A 83-01]
expression of NG2 (relative average fluorescence intensity, X (−) = 1) [1]: did not significantly affect | expression of PDGFR-β (relative average fluorescence intensity, X (−) = 1) [1]: did not significantly affect | protein expression of α-SMA (relative average fluorescence intensity, X (−) = 1) [1]: suppress the protein expression of α-SMA | maximum TEER value (barrier function of iBMELCs) at content of 1 μM ([2]; 1 μM vs 10 μM): high barrier function equivalent to the case of the content of 10 μM | maximum TEER value (barrier function of iBMELCs), added vs not added ([2]; 0.1, 1 or 10 μM in HE-SFM with 20 ng/mL FGF2 and 7.5% B27s, FBN+COL4 coating): the barrier function of iBMELCs was higher than that when A 83-01 was not added | relative mRNA expression level of α-SMA (human primary pericytes = 1) [3]: suppress the gene expression of α-SMA to the same extent as that of human primary pericytes | cell migration ability and proliferation potential of iBPCs ([4]; X (+) vs X (−)): enhance the cell migration ability and proliferation potential of iBPCs | relative distance of the cell scratch portion (0 hour = 1) ([4]; iBPCs (X (+)), 24 hours after cell scratching, number of samples 1): 0
